Measured values: patent US20060029668A1, “Sustained release L-arginine formulations and methods of manufacture and use” (priority 2002, published 2006)

What was measured:
[1] = tested on: endothelium-dependent vasodilation; assay: Endothelium-dependent vasodilation by brachial artery ultrasound in subjects with elevated ADMA; format: in vivo, human; details: subjects in whom eNOS is blocked by elevated ADMA levels
eNOS = eNOS function in cultured human aortic endothelial cells (conversion of labeled L-arginine to L-citrulline); format: cell-based; details: HAEC incubated with 1.0 or 0.3 μM simvastatin for 24 hours; relative to untreated cells
Experimental: Human aortic endothelial cells (HAEC-c) (BioWhittaker, Walkersville, Md.) were cultured according to the following procedure. Endothelial cells in EBM-2/EGM-2 media (BioWhittaker) were grown to about 80% to about 90% confluence. Each flask of cells was washed with 5 ml media followed by the addition of 15 ml media to each cell. Cells were detached with a cell scraper and transferred to a 50 ml conical tube. Cells were pelleted by centrifugation at 800 RMP for 8 min. The supernatant was discarded and the pellet was washed with cold 1× PBS.
The cells were homogenized as follows. The pellet was loosened and 400 μl of 10× homogenization buffer (250 mM Tris at pH 7.4, 10 mM EDTA and 10 mM EGTA) was added. The sample was homogenized using a 27 G needle about 10 times. The homogenate was transferred to a 1.5 ml epindorph tube. The pellet was subsequently resuspended in 30 to 45 μl of 1× homogenization buffer. […]
Following incubation, about 400 μl of stop equilibration buffer (50 mM NaAcetate at pH 5.5) was added to each sample and control. […] Results are calculated, in part, by subtracting background (buffer control) from each sample. The sample values are expressed as counts per minute or as a percent of untreated cells.
Relative eNOS function was measured by the conversion of labeled-L-arginine to L-citrulline and expressed as a percent of citrulline produced by the non-treated cells. […]

infarct volume = assay: Dose optimization of combination of simvastatin and L-arginine, infarct volume in mice; format: in vivo; details: mice injected with varying levels of simvastatin and L-arginine; predicted by statistical analysis

Row | Structure (SMILES) | effect on endothelial function [1] | level of eNOS function (eNOS) | optimal range of the combination (infarct volume) [mg/kg]
1 | CCC(C)(C)C(=O)O[C@H]1C[C@@H](C)C=C2C=C[C@H](C)[C@H](CC[C@@H]3C[C@@H](O)CC(=O)O3)[C@H]21 [simvastatin w/o L-arginine SR, simvastatin] | does not enhance | increases | 
2 | N=C(N)NCCC[C@H](N)C(=O)O [L-arginine] |  |  | 20 to 25
